# Data reported in US9611264B1, “N-[2-(3-amino-2,5-dimethyl-1,1-dioxido-5,6-dihydro-2H-1,2,4-thiadiazin-5-yl)-1,3-thiazol-4-yl] amides” (Pfizer Inc., priority 2015, dated 2017).
# Structures can show the parent of a compound that is named as a salt.
# Biological target: T1, BACE1 enzyme (Homo sapiens, UniProt P56817)
# T1 construct: transfected with a soluble BACE construct (BACE1deltaTM96His); His (C); made in house; host or cells: CHO-K1 cells (secreted into conditioned media)
# Test: BACE1 Cell-Free Assay (fluorescence polarization, cleavage of synthetic APP substrate)
# Assay type: biochemical
# Details: geometric mean of 2-4 determinations unless otherwise indicated (b: ≧5 determinations; c: single determination); 0.1 nM BACE1, 150 nM peptide substrate, pH 4.5, 3 hours at 37° C.
# From the text: Beta-secretase (BACE) is one of the enzymes involved in the generation of the amyloid beta peptide found in the amyloid plaques of Alzheimer's disease patients. This assay measures the inhibition of the beta-secretase enzyme as it cleaves a non-native peptide.
# A synthetic APP substrate that can be cleaved by beta-secretase having N-terminal biotin and made fluorescent by the covalent attachment of Oregon Green at the Cys residue is used to assay beta-secretase activity in the presence or absence of the inhibitory compounds. The substrate is Biotin-GLTNIKTEEISEISY^EVEFR-C[Oregon Green]KK-OH. The BACE1 enzyme is affinity purified material from conditioned media of CHO-K1 cells that have been transfected with a soluble BACE construct (BACE1deltaTM96His). Compounds are incubated in a ½ log dose response curve from a top concentration of 100 μM with BACE1 enzyme and the biotinylated fluorescent peptide in 384-well black plates (Thermo Scientific #4318). BACE1 is at a final concentration of 0.1 nM with a final concentration of peptide substrate of 150 nM in a reaction volume of 30 μL assay buffer [100 mM sodium acetate, pH 4.5 (brought to pH with acetic acid), and 0.001% Tween-20]. Plates are covered and incubated for 3 hours at 37° C. The reaction is stopped with the addition of 30 μL of 1.5 μM Streptavidin (Pierce, #21125). After a 10 minute incubation at room temperature, plates are read on a PerkinElmer EnVision for fluorescence polarization (Ex485 nm/Em530 nm). The activity of the beta-secretase enzyme is detected by changes in the fluorescence polarization that occur when the substrate is cleaved by the enzyme.
# T1 sequence (P56817 46-457 limits assumed): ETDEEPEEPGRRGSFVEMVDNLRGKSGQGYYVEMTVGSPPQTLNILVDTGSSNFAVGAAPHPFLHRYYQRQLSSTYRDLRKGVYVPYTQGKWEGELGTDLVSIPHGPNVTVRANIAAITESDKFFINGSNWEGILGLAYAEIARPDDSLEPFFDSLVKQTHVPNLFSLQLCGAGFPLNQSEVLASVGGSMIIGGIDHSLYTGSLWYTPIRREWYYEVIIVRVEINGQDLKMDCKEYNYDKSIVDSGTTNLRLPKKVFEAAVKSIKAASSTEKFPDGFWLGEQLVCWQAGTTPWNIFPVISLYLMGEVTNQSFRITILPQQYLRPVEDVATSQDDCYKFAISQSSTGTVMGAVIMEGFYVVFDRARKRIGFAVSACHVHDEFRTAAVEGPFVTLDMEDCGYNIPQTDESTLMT
row,SMILES,IC50 [nM]
1,"CN1C(N)=N[C@@](C)(c2nc(NC(=O)c3ccc(OC(F)F)cn3)cs2)[C@H](C2CC2)S1(=O)=O (single isomer, unassigned) [Example 3]",31200
2,"CN1C(N)=N[C@](C)(c2nc(NC(=O)c3ccc(OC(F)F)cn3)cs2)[C@@H](C2CC2)S1(=O)=O (single isomer, unassigned) [Example 4]",103
3,"CN1C(N)=N[C@](C)(c2nc(NC(=O)c3ccc(OC(F)F)cn3)cs2)[C@H](C2CC2)S1(=O)=O (single isomer, unassigned) [Example 5]",51
4,"CN1C(N)=N[C@@](C)(c2nc(NC(=O)c3ccc(OC(F)F)cn3)cs2)C(C)(C)S1(=O)=O (single isomer, unassigned) [Example 7]",4400
5,"CN1C(N)=N[C@](C)(c2nc(NC(=O)c3ccc(OC(F)F)cn3)cs2)C(C)(C)S1(=O)=O (single isomer, unassigned) [Example 8]",78
6,"C[C@H]1[C@](C)(c2nc(NC(=O)c3ccc(OC(F)F)cn3)cs2)N=C(N)N(C)S1(=O)=O (single isomer, unassigned) [Example 10]",18000
7,"C[C@@H]1[C@@](C)(c2nc(NC(=O)c3ccc(OC(F)F)cn3)cs2)N=C(N)N(C)S1(=O)=O (single isomer, unassigned) [Example 11]",136
8,"C[C@H]1[C@@](C)(c2nc(NC(=O)c3ccc(OC(F)F)cn3)cs2)N=C(N)N(C)S1(=O)=O (single isomer, unassigned) [Example 12]",88
9,"C[C@@H]1[C@](C)(c2nc(NC(=O)c3ccc(OC(F)F)cn3)cs2)N=C(N)N(C)S1(=O)=O (single isomer, unassigned) [Example 13]",33800
10,"CN1C(N)=N[C@](C)(c2nc(NC(=O)c3ccc(OC(F)F)cn3)cs2)CS1(=O)=O [Example 1, N-{2-[(5S)-3-amino-2,5-dimethyl-1,1-dioxido-5,6-dihydro-2H-1,2,4-thiadiazin-5-yl]-1,3-thiazol-4-yl}-5-(difluoromethoxy)pyridine-2-carboxamide]",60
11,"CN1C(N)=N[C@](C)(c2nc(NC(=O)c3ccn(C(F)F)n3)cs2)CS1(=O)=O [Example 2, N-{2-[(5S)-3-amino-2,5-dimethyl-1,1-dioxido-5,6-dihydro-2H-1,2,4-thiadiazin-5-yl]-1,3-thiazol-4-yl}-1-(difluoromethyl)-1H-pyrazole-3-carboxamide]",19
12,"CN1C(N)=NC(C)(c2nc(NC(=O)c3ccc(OC(F)F)cn3)cs2)C(C)(C)S1(=O)=O (stereo not drawn) [Example 6, N-[2-(3-amino-2,5,6,6-tetramethyl-1,1-dioxido-5,6-dihydro-2H-1,2,4-thiadiazin-5-yl)-1,3-thiazol-4-yl]-5-(difluoromethoxy)pyridine-2-carboxamide]",185
13,"Cc1cc(OC(F)F)cnc1C(=O)Nc1csc([C@]2(C)CS(=O)(=O)N(C)C(N)=N2)n1 [Example 9, N-{2-[(5S)-3-amino-2,5-dimethyl-1,1-dioxido-5,6-dihydro-2H-1,2,4-thiadiazin-5-yl]-1,3-thiazol-4-yl}-5-(difluoromethoxy)-3-methylpyridine-2-carboxamide, methanesulfonic acid salt]",29
14,"CC[C@H]1[C@](C)(c2nc(NC(=O)c3ccc(OC(F)F)cn3)cs2)N=C(N)N(C)S1(=O)=O [Example 14, N-{2-[(5R,6S)-3-amino-6-ethyl-2,5-dimethyl-1,1-dioxido-5,6-dihydro-2H-1,2,4-thiadiazin-5-yl]-1,3-thiazol-4-yl}-5-(difluoromethoxy)pyridine-2-carboxamide]",14200
15,"CC[C@@H]1[C@@](C)(c2nc(NC(=O)c3ccc(OC(F)F)cn3)cs2)N=C(N)N(C)S1(=O)=O [Example 15, N-{2-[(5S,6R)-3-amino-6-ethyl-2,5-dimethyl-1,1-dioxido-5,6-dihydro-2H-1,2,4-thiadiazin-5-yl]-1,3-thiazol-4-yl}-5-(difluoromethoxy)pyridine-2-carboxamide]",371
16,"CC[C@@H]1[C@](C)(c2nc(NC(=O)c3ccc(OC(F)F)cn3)cs2)N=C(N)N(C)S1(=O)=O [Example 16, N-{2-[(5R,6R)-3-amino-6-ethyl-2,5-dimethyl-1,1-dioxido-5,6-dihydro-2H-1,2,4-thiadiazin-5-yl]-1,3-thiazol-4-yl}-5-(difluoromethoxy)pyridine-2-carboxamide]",3920
17,"CC[C@H]1[C@@](C)(c2nc(NC(=O)c3ccc(OC(F)F)cn3)cs2)N=C(N)N(C)S1(=O)=O [Example 17, N-{2-[(5S,6S)-3-amino-6-ethyl-2,5-dimethyl-1,1-dioxido-5,6-dihydro-2H-1,2,4-thiadiazin-5-yl]-1,3-thiazol-4-yl}-5-(difluoromethoxy)pyridine-2-carboxamide]",200
18,"CN1C(N)=N[C@](C)(c2nc(NC(=O)c3cnc(CF)cn3)cs2)CS1(=O)=O [Example 18, N-{2-[(5S)-3-amino-2,5-dimethyl-1,1-dioxido-5,6-dihydro-2H-1,2,4-thiadiazin-5-yl]-1,3-thiazol-4-yl}-5-(fluoromethyl)pyrazine-2-carboxamide]",246
19,"CN1C(N)=N[C@](C)(c2nc(NC(=O)c3cnc(C(F)F)cn3)cs2)CS1(=O)=O [Example 19, N-{2-[(5S)-3-amino-2,5-dimethyl-1,1-dioxido-5,6-dihydro-2H-1,2,4-thiadiazin-5-yl]-1,3-thiazol-4-yl}-5-(difluoromethyl)pyrazine-2-carboxamide]",172
20,"CN1C(N)=N[C@](C)(c2nc(NC(=O)c3ccc(Cl)cn3)cs2)CS1(=O)=O [Example 20, N-{2-[(5S)-3-amino-2,5-dimethyl-1,1-dioxido-5,6-dihydro-2H-1,2,4-thiadiazin-5-yl]-1,3-thiazol-4-yl}-5-chloropyridine-2-carboxamide]",42
21,"CN1C(N)=N[C@](C)(c2nc(NC(=O)c3coc(CF)n3)cs2)CS1(=O)=O [Example 21, N-{2-[(5S)-3-amino-2,5-dimethyl-1,1-dioxido-5,6-dihydro-2H-1,2,4-thiadiazin-5-yl]-1,3-thiazol-4-yl}-2-(fluoromethyl)-1,3-oxazole-4-carboxamide]",11
22,"CN1C(N)=N[C@](C)(c2nc(NC(=O)c3cnc(OCC(C)(F)F)cn3)cs2)CS1(=O)=O [Example 22, N-{2-[(5S)-3-amino-2,5-dimethyl-1,1-dioxido-5,6-dihydro-2H-1,2,4-thiadiazin-5-yl]-1,3-thiazol-4-yl}-5-(2,2-difluoropropoxy)pyrazine-2-carboxamide]",134
23,"CC#CCOc1cnc(C(=O)Nc2csc([C@]3(C)CS(=O)(=O)N(C)C(N)=N3)n2)cn1 [Example 23, N-{2-[(5S)-3-amino-2,5-dimethyl-1,1-dioxido-5,6-dihydro-2H-1,2,4-thiadiazin-5-yl]-1,3-thiazol-4-yl}-5-(but-2-yn-1-yloxy)pyrazine-2-carboxamide]",13
24,"CC#CCOc1ccc(C(=O)Nc2csc([C@]3(C)CS(=O)(=O)N(C)C(N)=N3)n2)nc1 [Example 24, N-{2-[(5S)-3-amino-2,5-dimethyl-1,1-dioxido-5,6-dihydro-2H-1,2,4-thiadiazin-5-yl]-1,3-thiazol-4-yl}-5-(but-2-yn-1-yloxy)pyridine-2-carboxamide]",13
25,"CN1C(N)=N[C@](C)(c2nc(NC(=O)c3ncc(OC(F)F)cc3Cl)cs2)CS1(=O)=O [Example 25, N-{2-[(5S)-3-amino-2,5-dimethyl-1,1-dioxido-5,6-dihydro-2H-1,2,4-thiadiazin-5-yl]-1,3-thiazol-4-yl}-3-chloro-5-(difluoromethoxy)pyridine-2-carboxamide]",23
26,"CN1C(N)=N[C@](C)(c2nc(NC(=O)c3ccc(C#N)cn3)cs2)CS1(=O)=O [Example 26, N-{2-[(5S)-3-amino-2,5-dimethyl-1,1-dioxido-5,6-dihydro-2H-1,2,4-thiadiazin-5-yl]-1,3-thiazol-4-yl}-5-cyanopyridine-2-carboxamide]",45
27,"Cc1cc(C#N)cnc1C(=O)Nc1csc([C@]2(C)CS(=O)(=O)N(C)C(N)=N2)n1 [Example 27, N-{2-[(5S)-3-amino-2,5-dimethyl-1,1-dioxido-5,6-dihydro-2H-1,2,4-thiadiazin-5-yl]-1,3-thiazol-4-yl}-5-cyano-3-methylpyridine-2-carboxamide]",9
